Measurements taken from patent US20250034201A1, “PRODRUGS OF GANAXOLONE” (priority 2022, published 2025).
Where two headings read alike, the source gives them in different places.

Assay: in vitro
Type: in vitro ADME, human
Experimental: For several compounds only human liver microsomal stability was tested. […] The microsomal assays were carried out with and without the addition of NADPH at a final concentration of 1 mM. For negative control samples, NADPH reagent was not added. […] Note that compounds undergo only Phase I metabolism in liver microsomes.

[1] = human liver microsomes 0.5 mg/mL, with NADPH, compound 0.5 μM, 37° C., read-out: Human Liver Microsomal Stability t1/2
[2] = human liver microsomes 0.5 mg/mL, with NADPH, compound 0.5 μM, read-out: Human Liver Microsomal Stability CLint (uL/min/mg liver) (converted)
[3] = human liver microsomes, no NADPH, compound 0.5 μM

CC(=O)[C@H]1CC[C@H]2[C@@H]3CC[C@H]4C[C@](C)(OC(=O)CCCN)CC[C@]4(C)[C@H]3CC[C@]12C [Compound 417]
Comments: production of GNX (ganaxolone) in human liver microsomes (human liver microsomes): In human no GNX produced | half-life [1]: 494 min | microsomal CLint [2]: 2.81 µL/min/mg | Human Liver Microsomal Stability no NADPH, % remain 1 h [3]: 99%

CC(=O)[C@H]1CC[C@H]2[C@@H]3CC[C@H]4C[C@](C)(OC(=O)C5CC5C(=O)NCCN(C)C)CC[C@]4(C)[C@H]3CC[C@]12C (stereo partly drawn) [Compound 411]
Comments: production of GNX (ganaxolone) in human liver microsomes (human liver microsomes): In human small amount of GNX produced | half-life [1]: 444 min | microsomal CLint [2]: 3.12 µL/min/mg | Human Liver Microsomal Stability no NADPH, % remain 1 h [3]: 99%

COC(=O)C(C)(C)NCC(=O)O[C@]1(C)CC[C@@]2(C)[C@@H](CC[C@@H]3[C@@H]2CC[C@]2(C)[C@@H](C(C)=O)CC[C@@H]32)C1 [Compound 125]
half-life [1]: 3.9 min | microsomal CLint [2]: 354 µL/min/mg | Human Liver Microsomal Stability no NADPH, % remain 1 h [3]: 1%

CNC(C)(C)C(=O)OCC(=O)O[C@]1(C)CC[C@@]2(C)[C@@H](CC[C@@H]3[C@@H]2CC[C@]2(C)[C@@H](C(C)=O)CC[C@@H]32)C1 [Compound 232]
half-life [1]: 13.5 min | microsomal CLint [2]: 103 µL/min/mg | Human Liver Microsomal Stability no NADPH, % remain 1 h [3]: 27%

COC(=O)[C@@H](NCC(=O)O[C@]1(C)CC[C@@]2(C)[C@@H](CC[C@@H]3[C@@H]2CC[C@]2(C)[C@@H](C(C)=O)CC[C@@H]32)C1)C(C)C [Compound 108]
Comments: production of GNX (ganaxolone) in human liver microsomes (human liver microsomes): GNX not produced in human | half-life [1]: 12.2 min | microsomal CLint [2]: 114 µL/min/mg | Human Liver Microsomal Stability no NADPH, % remain 1 h [3]: 98%

CC(=O)[C@H]1CC[C@H]2[C@@H]3CC[C@H]4C[C@](C)(OC(=O)CNC(C)(C)COC(=O)CN5CCOCC5)CC[C@]4(C)[C@H]3CC[C@]12C [Compound 136]
half-life [1]: 3 min | microsomal CLint [2]: 457 µL/min/mg | Human Liver Microsomal Stability no NADPH, % remain 1 h [3]: 0.5%

CC(=O)[C@H]1CC[C@H]2[C@@H]3CC[C@H]4C[C@](C)(OC(=O)COC(=O)CNC(=O)[C@@H](N)C(C)C)CC[C@]4(C)[C@H]3CC[C@]12C [Compound 214]
half-life [1]: 161 min | microsomal CLint [2]: 8.6 µL/min/mg | Human Liver Microsomal Stability no NADPH, % remain 1 h [3]: 79.5%

CC(=O)[C@H]1CC[C@H]2[C@@H]3CC[C@H]4C[C@](C)(OC(=O)CN5CCC[C@H]5C(=O)O)CC[C@]4(C)[C@H]3CC[C@]12C [Compound 137]
Comments: production of GNX (ganaxolone) in human liver microsomes (human liver microsomes): In human no GNX produced | half-life [1]: 908 min | microsomal CLint [2]: 1.52 µL/min/mg | Human Liver Microsomal Stability no NADPH, % remain 1 h [3]: 95%

CC(=O)[C@H]1CC[C@H]2[C@@H]3CC[C@H]4C[C@](C)(OC(=O)CNC(=O)CN5CCOCC5)CC[C@]4(C)[C@H]3CC[C@]12C [Compound 112]
Comments: production of GNX (ganaxolone) in human liver microsomes (human liver microsomes): In human no GNX produced | half-life [1]: 46.7 min | microsomal CLint [2]: 29.6 µL/min/mg | Human Liver Microsomal Stability no NADPH, % remain 1 h [3]: 98.6%

CC(=O)[C@H]1CC[C@H]2[C@@H]3CC[C@H]4C[C@](C)(OC(=O)CN(CCO)CCO)CC[C@]4(C)[C@H]3CC[C@]12C [Compound 142]
half-life (human, microsomes): 32.3 min | microsomal CLint (human, microsomes): 42.9 µL/min/mg | Human Liver Microsomal Stability no NADPH, % remain 1 h (human, microsomes): 99%

CC(=O)[C@H]1CC[C@H]2[C@@H]3CC[C@H]4C[C@](C)(OC(=O)COC(=O)CNC(=O)[C@H](C)N)CC[C@]4(C)[C@H]3CC[C@]12C [Compound 216]
half-life [1]: 192 min | microsomal CLint [2]: 7.22 µL/min/mg | Human Liver Microsomal Stability no NADPH, % remain 1 h [3]: 80%

CC(=O)[C@H]1CC[C@H]2[C@@H]3CC[C@H]4C[C@](C)(OC(=O)COC(=O)C(C)(C)OC(=O)CN(C)CCOC(=O)CN)CC[C@]4(C)[C@H]3CC[C@]12C [Compound 241]
half-life (human, microsomes): 3.9 min | microsomal CLint (human, microsomes): 356 µL/min/mg | Human Liver Microsomal Stability no NADPH, % remain 1 h (human, microsomes): 3.68%

CC(=O)[C@H]1CC[C@H]2[C@@H]3CC[C@H]4C[C@](C)(OC(=O)COC(=O)CO)CC[C@]4(C)[C@H]3CC[C@]12C [Compound 247]
half-life [1]: 2.01 min | microsomal CLint [2]: 689 µL/min/mg | Human Liver Microsomal Stability no NADPH, % remain 1 h [3]: 1.1%

CC(=O)[C@H]1CC[C@H]2[C@@H]3CC[C@H]4C[C@](C)(OC(=O)CC(C)(C)C(=O)O)CC[C@]4(C)[C@H]3CC[C@]12C [Compound 420]
Comments: production of GNX (ganaxolone) in human liver microsomes (human liver microsomes): In human no GNX produced | half-life [1]: 445 min | microsomal CLint [2]: 3.11 µL/min/mg | Human Liver Microsomal Stability no NADPH, % remain 1 h [3]: 97.4%

CC(=O)[C@H]1CC[C@H]2[C@@H]3CC[C@H]4C[C@](C)(OC(=O)COC(=O)OC5CNC5)CC[C@]4(C)[C@H]3CC[C@]12C [Compound 222]
Comments: production of GNX (ganaxolone) in human liver microsomes (human liver microsomes): In human no GNX produced | half-life [1]: 63.7 min | microsomal CLint [2]: 21.8 µL/min/mg | Human Liver Microsomal Stability no NADPH, % remain 1 h [3]: 61%

CC(=O)[C@H]1CC[C@H]2[C@@H]3CC[C@H]4C[C@](C)(OC(=O)CN5CCC[C@H]5C(=O)OCc5ccccc5)CC[C@]4(C)[C@H]3CC[C@]12C [Compound 128]
Comments: production of GNX (ganaxolone) in human liver microsomes (human liver microsomes): In human no GNX produced | half-life [1]: 9 min | microsomal CLint [2]: 153 µL/min/mg | Human Liver Microsomal Stability no NADPH, % remain 1 h [3]: 20%

CNCC(=O)O[C@]1(C)CC[C@@]2(C)[C@@H](CC[C@@H]3[C@@H]2CC[C@]2(C)[C@@H](C(C)=O)CC[C@@H]32)C1 [Compound 114]
half-life [1]: 277 min | microsomal CLint [2]: 5 µL/min/mg | Human Liver Microsomal Stability no NADPH, % remain 1 h [3]: 99.5%

CC(=O)[C@H]1CC[C@H]2[C@@H]3CC[C@H]4C[C@](C)(OC(=O)CCC(=O)NCCN(C)C)CC[C@]4(C)[C@H]3CC[C@]12C [Compound 410]
Comments: production of GNX (ganaxolone) in human liver microsomes (human liver microsomes): In human no GNX produced | half-life [1]: 439 min | microsomal CLint [2]: 3.16 µL/min/mg | Human Liver Microsomal Stability no NADPH, % remain 1 h [3]: 99%

CC(=O)[C@H]1CC[C@H]2[C@@H]3CC[C@H]4C[C@](C)(OC(=O)COC(=O)CN(C)C)CC[C@]4(C)[C@H]3CC[C@]12C [Compound 202]
half-life [1]: 2.62 min | microsomal CLint [2]: 529 µL/min/mg | Human Liver Microsomal Stability no NADPH, % remain 1 h [3]: 1.85%

COCCN(CCOC(C)=O)CC(=O)OC(C)(C)C(=O)OCC(=O)O[C@]1(C)CC[C@@]2(C)[C@@H](CC[C@@H]3[C@@H]2CC[C@]2(C)[C@@H](C(C)=O)CC[C@@H]32)C1 [Compound 236]
half-life (human, microsomes): 3.72 min | microsomal CLint (human, microsomes): 372 µL/min/mg | Human Liver Microsomal Stability no NADPH, % remain 1 h (human, microsomes): <1%

CC(=O)[C@H]1CC[C@H]2[C@@H]3CC[C@H]4C[C@](C)(OC(=O)CSCCN)CC[C@]4(C)[C@H]3CC[C@]12C [Compound 302]
Comments: production of GNX (ganaxolone) in human liver microsomes (human liver microsomes): In human GNX not produced | half-life (human, microsomes): 248 min | microsomal CLint (human, microsomes): 5.59 µL/min/mg | Human Liver Microsomal Stability no NADPH, % remain 1 h (human, microsomes): 99%

CC(=O)[C@H]1CC[C@H]2[C@@H]3CC[C@H]4C[C@](C)(OC(=O)C[C@H](N)C(=O)O)CC[C@]4(C)[C@H]3CC[C@]12C [Compound 414]
Comments: production of GNX (ganaxolone) in human liver microsomes (human liver microsomes): In human no GNX produced | half-life [1]: 178 min | microsomal CLint [2]: 7.81 µL/min/mg | Human Liver Microsomal Stability no NADPH, % remain 1 h [3]: 82%

CC(=O)[C@H]1CC[C@H]2[C@@H]3CC[C@H]4C[C@](C)(OC(=O)CNCC(C)(C)N)CC[C@]4(C)[C@H]3CC[C@]12C [Compound 138]
Comments: production of GNX (ganaxolone) in human liver microsomes (human liver microsomes): In human small amount of GNX produced | half-life [1]: 33.2 min | microsomal CLint [2]: 41.8 µL/min/mg | Human Liver Microsomal Stability no NADPH, % remain 1 h [3]: 95.3%

CC(=O)[C@H]1CC[C@H]2[C@@H]3CC[C@H]4C[C@](C)(OC(=O)CN(C)C(=O)CN5CCOCC5)CC[C@]4(C)[C@H]3CC[C@]12C [Compound 115]
Comments: production of GNX (ganaxolone) in human liver microsomes (human liver microsomes): In human no GNX produced | half-life [1]: 13.8 min | microsomal CLint [2]: 100 µL/min/mg | Human Liver Microsomal Stability no NADPH, % remain 1 h [3]: 99%

CC(=O)[C@H]1CC[C@H]2[C@@H]3CC[C@H]4C[C@](C)(OC(=O)COC(=O)[C@H](C)N5CCOCC5)CC[C@]4(C)[C@H]3CC[C@]12C [Compound 211]
half-life [1]: 10.5 min | microsomal CLint [2]: 132 µL/min/mg | Human Liver Microsomal Stability no NADPH, % remain 1 h [3]: 27%

CC(=O)[C@H]1CC[C@H]2[C@@H]3CC[C@H]4C[C@](C)(OC(=O)CCN5C(=O)CCC5=O)CC[C@]4(C)[C@H]3CC[C@]12C [Compound 415]
Comments: production of GNX (ganaxolone) in human liver microsomes (human liver microsomes): In human small amount of GNX produced | half-life [1]: 8.2 min | microsomal CLint [2]: 169 µL/min/mg | Human Liver Microsomal Stability no NADPH, % remain 1 h [3]: 99%

CC(=O)COCN(CCO)CC(=O)OC(C)(C)C(=O)OCC(=O)O[C@]1(C)CC[C@@]2(C)[C@@H](CC[C@@H]3[C@@H]2CC[C@]2(C)[C@@H](C(C)=O)CC[C@@H]32)C1 [Compound 230]
half-life [1]: 2.94 min | microsomal CLint [2]: 471 µL/min/mg | Human Liver Microsomal Stability no NADPH, % remain 1 h [3]: 1%

CC(=O)[C@H]1CC[C@H]2[C@@H]3CC[C@H]4C[C@](C)(OC(=O)COC(=O)C(C)(C)OC(=O)CN(CCCO)CCCO)CC[C@]4(C)[C@H]3CC[C@]12C [Compound 231]
half-life [1]: 5.3 min | microsomal CLint [2]: 261 µL/min/mg | Human Liver Microsomal Stability no NADPH, % remain 1 h [3]: 98%

COC(=O)CNCC(=O)O[C@]1(C)CC[C@@]2(C)[C@@H](CC[C@@H]3[C@@H]2CC[C@]2(C)[C@@H](C(C)=O)CC[C@@H]32)C1 [Compound 110]
Comments: production of GNX (ganaxolone) in human liver microsomes (human liver microsomes): In human GNX not produced | half-life [1]: 4.15 min | microsomal CLint [2]: 344 µL/min/mg | Human Liver Microsomal Stability no NADPH, % remain 1 h [3]: 1.5%
